Values quoted from earlier work as cited in US20150283066A1, “VAGINAL DANAZOL COMBINED WITH NON STEROIDAL ANTI INFLAMMATORY DRUGS (NSAIDS) COMPOSITIONS” (MEDIGLOBE LTD, priority 2011, published 2015).

Settings: literature (University of Helsinki); stated jointly for NSAIDs and tranexamic acid

In the case of NC[C@H]1CC[C@H](C(=O)O)CC1 [tranexamic acid], the “reduction of menstrual blood loss” value is given as 20-60%.
